Target: glycoprotein B (gB) (Human alphaherpesvirus 1 strain 17, UniProt P10211)
Experiment: surface plasmon resonance
Assay type: binding

SMILES: C=C1CC/C=C(\C)CC[C@@H]2[C@@H]1CC2(C)C [BCP, β-caryophyllene]
- Kd: 4.26 µM

— paper PMC12239253 (BMC Complementary Medicine and Therapies, 2025)
